{"source": "patent US20240301409A1", "about": "“Chemically Modified Small Activating RNA” (RACTIGEN THERAPEUTICS, priority 2021, published 2024)", "key": {"RNase A": {"target": "T1, RNase A (Bos taurus, UniProt P61823)", "T1 sequence (P61823 27-150)": "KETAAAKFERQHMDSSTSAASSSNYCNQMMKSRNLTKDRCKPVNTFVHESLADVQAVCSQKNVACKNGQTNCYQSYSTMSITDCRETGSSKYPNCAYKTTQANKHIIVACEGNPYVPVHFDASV"}, "Ku-7-LG cells": {"system": "Ku-7-LG cells", "assay": "Cellular proliferation assay (CCK8) in Ku-7-LG cells", "assay_type": "cell-based, human", "conditions": "10 nM, 72 hours", "method": "Ku-7-LG cells were transfected with the indicated saRNA at 10 nM for 3 days. […] The closer the luciferase value is to the control group, the lower the probability of off-target effects of saRNA is. Control and dsCon2 were blank transfection and double-stranded scramble RNA transfection, respectively. The value of the ordinate represents the mean±SD of two repeated treatments.\n(§1) After the transfection, the number of viable cells was detected with a CCK8 kit, and plotted as the percentage of the blank control treatment group. […] A transfection sample without oligonucleotide served as a blank control. Non-specific duplex (dsCon) transfected sample served as a negative control. Data are presented as mean±SD of at least two independent experiments. The values below the dashed line indicate stronger growth inhibitory activity compared to duplex Rag1-40 without chemical modification.\n(§2) Human bladder cancer cells Ku-7-LG (ATCC), J82 (ATCC) and T24 (ATCC) were cultured in McCoy medium (Gibco) comprising 10% calf serum (Sigma-Aldrich) and 1% penicillin/Streptomycin (Gibco). Cells were cultured at 37° C. under 5% CO2. Ku-7-LG, J82 and T24 cells were plated into 12-well plates at 10×10^4 cells per well, transfected with the small RNA at a concentration of 10 nM (unless otherwise specified) for three days, using RNAiMax (Invitrogen, Carlsbad, CA) according to the manufacturer's instructions. Two replicate wells were set for each treatment.\n(§3) Cells were plated in a 96-well plate at 2˜4×10^3 cells/well, cultured overnight, and transfected with the oligonucleotide duplexes. Three days after transfection, CCK8 (Dojindo) was used to detect cellular proliferation following manufacturer's instructions. The experimental steps are briefly described as follows: 10 μL of CCK8 solution was added to each well, incubated at 37° C. for 1 hour, and then the absorbance at 450 nm was measured using a microplate reader.\n(§4) It is known that p21 induction by saRNA is that a variety of tumor suppressor factors such as p21 protein suppress the proliferation of cancer cells. To evaluate the effect of chemically modified saRNAs on the function of cancer cells, cells (Ku-7-LG and T24) were transfected with 10 nM unmodified and modified saRNAs for 72 hours, and the cellular proliferation was determined by CCK8. […] Furthermore, there was a correlation between RNA activating activity (FIGS. 7A-7B) and suppression of cellular proliferation activity (FIGS. 8A-8B). Strong p21 activators are usually also strong cytostatics."}, "[1]": {"system": "Rag1-40 target sequence in the 3′ UTR of firefly luciferase, COS-1 cells"}, "T24 cells": {"system": "T24 cells", "assay": "Cellular proliferation assay (CCK8) in T24 cells, alone and combined with Mitomycin C or valrubicin", "assay_type": "cell-based, human", "conditions": "T24 cells, 10 nM, 72 hours, CCK8", "description": "as §1\nT24 cells were transfected with RAG1-40-31 at concentrations of 0.1, 0.5, 1, 5, 10, 25 and 50 nM for 24 hours, and then Mitomycin C was added at concentrations of 1, 10, 100, 1000 and 10000 nM. The combined treatment was carried out with concentrations in pairs. After treatment, the cellular proliferation was detected by CCK8 kit. FIGS. 16A-16B show the relative proliferation proportion of T24 cells after the combined treatment with chemically modified saRNA RAG1-40-31 and valrubicin. […] Control and DMSO are the blank transfection control and the solvent for dilution control, respectively.\nT24 cells were transfected with RAG1-40-31 at concentrations of 0.1, 0.5, 1, 5, 10, 25 and 50 nM for 24 hours, and then valrubicin at concentrations of 1, 10, 100, 1000 and 10000 nM was added. The combined treatment was carried out with concentrations in pairs. After treatment, the cellular proliferation was detected by CCK8 kit.\nas §2, §3, §4"}, "p21 gene [2]": {"system": "p21 gene", "assay": "p21 mRNA expression by RT-qPCR in T24 cells", "assay_type": "cell-based, human", "conditions": "10 nM, 72 hours, compared with unmodified Rag1-40 unless worded otherwise", "method": "(§5) Ku-7-LG and T24 cells were transfected with the indicated saRNA at a final concentration of 10 nM for 3 days. After transfection, the RNA was extracted with the Qiagen RNeasy kit. After reverse transcription, the ABI 7500 fast real-time PCR system was used for qPCR amplification. The GAPDH gene was amplified as an internal reference. […] Dashed line indicates duplex Rag1-40 with no chemical modification in comparison, and the values above the line indicate stronger activity. The control was blank transfection without oligonucleotide. dsCon2 is transfected with a double-stranded scramble RNA. The value of the ordinate represents the mean±SD of 2 repeated treatments.\n(§6) The control and dsCon2 were blank transfection and scramble dsRNA transfection, respectively. The values in the ordinate represent the mean±SD of 2 repeated treatments.\nas §2\n(§7) After transfection, the medium was discarded and to each well 500 μl cell lysate was added and incubated at room temperature for 5 minutes. RNA was extracted with the Qiagen RNeasy kit, and after reverse transcription, qPCR analysis was performed on the ABI 7500 Fast Real-time PCR system (Applied Biosystems). Each sample was amplified in 3 replicate wells.\n(§8) The PCR reaction conditions are: 95° C. for 30 seconds, 95° C. for 5 seconds, 60° C. for 30 seconds, and 40 cycles of amplification. The GAPDH gene was amplified as an internal reference at the same time. p21 was amplified with the p21F1/R1 primer pair, and the specific sequences of the amplification primers are shown in Table 1.\n(§9) In order to calculate the expression value (Erel) of p21 (target gene) of a saRNA transfection sample relative to the control treatment, Formula 1 is used to input the Ct values of the target gene and the internal reference gene for calculation.\n(§10) wherein, CtTm is the Ct value of the target gene from the control treatment sample; CtTs is the Ct value of the target gene from the saRNA treated sample; CtRm is the Ct value of the internal reference gene from the control treatment sample; and CtRs is the Ct value of the internal reference gene from the saRNA treated sample.\n(§11) The main purpose of introducing chemical modifications to regulatory oligonucleotides of a gene is to improve their pharmaceutical properties, including enhancing in vivo stability and mitigating off-target effects (e.g., sequence-dependent targeting of unrelated genes, sequence-dependent or independent immune stimulation), while maintaining their gene regulatory capacity (gene knockdown or activation). To assess the effect of chemical modification on the RNAa activity of saRNA on the p21 gene, 10 nM unmodified (Rag1-40) and modified (Rag1-40-1 to Rag1-40-34) duplexes were transfected into Ku-7-LG and T24 cells, respectively. After 72 hours, the mRNA expression level of p21 was assessed by RT-qPCR. All duplexes induced p21 mRNA expression in all […] at least double that of the control.\n(§12) In order to further evaluate the expression level of p21 mRNA after the different durations of treatment by the chemically modified saRNA duplexes, two saRNAs (RAG1-40-31 and RAG1-40-53) were randomly selected from the above chemically modified saRNA duplexes for detection. RAG1-40-31 and RAG1-40-53 were transfected into Ku-7-LG and T24 cells at a final concentration of 10 nM, for 1, 2, 3, 4, 7 and 9 days, respectively. Each treatment was set up in duplicate. […]"}, "p21 gene [3]": {"system": "p21 gene", "assay": "p21 mRNA expression by RT-qPCR in Ku-7-LG cells", "assay_type": "cell-based, human", "conditions": "10 nM, 72 hours, compared with unmodified Rag1-40 unless worded otherwise", "method": "as §5, §6, §2, §7, §8, §9, §10, §11, §12"}, "[4]": {"system": "Rag1-40 target sequence in the 3′ UTR of firefly luciferase, COS-1 cells", "assay": "Analysis of off-target effects (pOff-Target dual luciferase reporter in COS-1 cells)", "conditions": "lysed 48 hours after transfection, luciferase activity"}}, "note": "Entries after “also recorded” stand apart in the source; their conditions may differ. Read-outs that look alike come from different tables or passages of the source. Oligonucleotides are written 5' to 3', each unit as a sugar letter and its base; * is a phosphorothioate linkage, no mark a phosphodiester; rarer units and linkages stand in square brackets, end groups in braces. Plain capitals give the bases only. d = 2'-deoxy (DNA); m = 2'-O-methyl; r = 2'-OH (RNA); f = 2'-fluoro", "data": [{"substance": "Rag1-40-16: saRNA duplex: sense fCfCAACUCAUUCUCCAAGfUfC (SEQ ID NO 14); antisense fUactfUGGAGAAfUGAGfUfUGG*fC*A (SEQ ID NO 13) (sense CCAACUCAUUCUCCAAGUC; antisense UACTUGGAGAAUGAGUUGGCA; 2'-F, DNA residues, phosphorothioate modifications; modified_base (1)..(19) (1,2,18,19)=2′-fluoro; modified_base (1)..(17) (1,2,9,13,14,17)=2′-fluoro; (1)..(21) (1,5,6,7,8,9,10,11,12,13,14,15,1,61,7,18,19,20, 21)=RNA; (2)..(4) (2,3,4)=DNA; modified_base (16)..(18) (16,17,18)=phosphorothioate (PS) backbone modification)", "values": [{"measurement": "degradation of duplex at 96 hours", "setting": "RNase A", "result": "little or no signs of degradation"}, {"measurement": "suppression of cellular proliferation, in words", "setting": "Ku-7-LG cells", "result": "weakens the activity of the saRNA duplex to suppress cellular proliferation"}, {"measurement": "off-target effect compared to unmodified Rag1-40, in words", "setting": "[1]", "result": "increased off-target effects"}, {"measurement": "suppression of cellular proliferation, in words", "setting": "T24 cells", "result": "weakens the activity of the saRNA duplex to suppress cellular proliferation"}]}, {"substance": "Rag1-40-33: saRNA duplex: sense CCAACUCAUUCUCCAAGUC (SEQ ID NO 17); antisense UactUGGAGAAUGAGUUGGCA (SEQ ID NO 18) (antisense rUdAdCdTrUrGrGrArGrArArUrGrArGrUrUrGrGrCrA; sense: unmodified RNA)", "values": [{"measurement": "suppression of cellular proliferation, in words", "setting": "Ku-7-LG cells", "result": "weak cellular proliferation inhibitory activity"}, {"measurement": "RNA activation activity (p21 mRNA), in words", "setting": "p21 gene [2]", "result": "reduced activity; also recorded: attenuated activity"}, {"measurement": "RNA activation activity (p21 mRNA), in words", "setting": "p21 gene [3]", "result": "attenuated activity; also recorded: weak RNA activating activity"}, {"measurement": "off-target effect compared to unmodified Rag1-40, in words", "setting": "[4]", "result": "mitigated or similar off-target effects"}]}, {"substance": "Rag1-40-11: saRNA duplex: sense fCfCAACUCAUUCUCCAAGfUfC (SEQ ID NO 14); antisense fUmAfCfUfUmGmGmAmGmAmAfUmGmAmGfUfUmGmGfCmA (SEQ ID NO 8) (sense fCfCrArArCrUrCrArUrUrCrUrCrCrArArGfUfC)", "values": [{"measurement": "degradation of duplex at 96 hours", "setting": "RNase A", "result": "little or no signs of degradation"}, {"measurement": "suppression of cellular proliferation, in words", "setting": "Ku-7-LG cells", "result": "negatively affects proliferation suppression activity"}, {"measurement": "off-target effect compared to unmodified Rag1-40, in words", "setting": "[1]", "result": "completely inhibited"}, {"measurement": "suppression of cellular proliferation, in words", "setting": "T24 cells", "result": "negatively affects proliferation suppression activity"}, {"measurement": "RNA activation activity (p21 mRNA), in words", "setting": "p21 gene [2]", "result": "reduced activity"}]}, {"substance": "Rag1-40-34: saRNA duplex: sense CCAACUCAUUCUCCAAGUC (SEQ ID NO 17); antisense UacttggAGAAUGAGUUGGCA (SEQ ID NO 19) (antisense rUdAdCdTdTdGdGrArGrArArUrGrArGrUrUrGrGrCrA; sense: RNA, phosphodiester; further chemistry not fully specified)", "values": [{"measurement": "suppression of cellular proliferation, in words", "setting": "Ku-7-LG cells", "result": "weak cellular proliferation inhibitory activity"}, {"measurement": "RNA activation activity (p21 mRNA), in words", "setting": "p21 gene [2]", "result": "reduced activity; also recorded: attenuated activity"}, {"measurement": "RNA activation activity (p21 mRNA), in words", "setting": "p21 gene [3]", "result": "attenuated activity; also recorded: weak RNA activating activity"}, {"measurement": "off-target effect compared to unmodified Rag1-40, in words", "setting": "[4]", "result": "mitigated or similar off-target effects"}]}, {"substance": "Rag1-40-32: saRNA duplex: sense fCfCAACUCAUUCUCCAAG*U*C (SEQ ID NO 16); antisense fUactfUGGAGAAfUGAGfUfUGG*fC*A (SEQ ID NO 13) (sense fCfCrArArCrUrCrArUrUrCrUrCrCrArArG*rU*rC; antisense fUdAdCdTfUrGrGrArGrArAfUrGrArGfUfUrGrG*fC*rA)", "values": [{"measurement": "degradation of duplex at 96 hours", "setting": "RNase A", "result": "little or no signs of degradation"}, {"measurement": "suppression of cellular proliferation, in words", "setting": "Ku-7-LG cells", "result": "weak cellular proliferation inhibitory activity; also recorded: weakens the activity of the saRNA duplex to suppress cellular proliferation"}, {"measurement": "off-target effect compared to unmodified Rag1-40, in words", "setting": "[1]", "result": "increased off-target effects"}, {"measurement": "suppression of cellular proliferation, in words", "setting": "T24 cells", "result": "weakens the activity of the saRNA duplex to suppress cellular proliferation"}, {"measurement": "RNA activation activity (p21 mRNA), in words", "setting": "p21 gene [2]", "result": "reduced activity; also recorded: attenuated activity"}, {"measurement": "RNA activation activity (p21 mRNA), in words", "setting": "p21 gene [3]", "result": "attenuated activity; also recorded: weak RNA activating activity"}]}]}
